Laboratory results: patent US20040224958A1, “Pyridopyrimidinone derivatives for treatment of neurodegenerative disease” (priority 2000, published 2004)

How the values were obtained:
[1] = molecular target: cdk4/D (Homo sapiens, UniProt P11802); experiment: Cyclin-Dependent Kinase 4 (cdk4) Assay; format: biochemical; conditions: read-out: cdk4/D IC50
[2] = molecular target: Cdk5/p25 (Homo sapiens, UniProt Q00535); experiment: Cyclin-Dependent Kinase 5 High Throughput Screening (cdk5-HTS) Assay; format: biochemical; conditions: high throughput screen
Procedure, shortened: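 IC50 determined from 33P incorporation into GST-RbCOOH captured on glutathione plates and read by scintillation counting. Reaction: 1.0 μg/mL Cdk5/p25, 20 μM [γ33P]ATP, pH 7.4 Tris buffer with MgCl2 and DTT, 30 min at room temperature, stopped with EDTA.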

[3] = molecular target: cdk2/cyclinE (Homo sapiens, UniProt P24941); experiment: Cyclin-Dependent Kinase Assay cdk2/cyclinE; conditions: cdk2/E IC50
[4] = molecular target: cdk2/cyclinA (Homo sapiens, UniProt P24941); experiment: Cyclin-Dependent Kinase Assay cdk2/cyclinA; conditions: cdk2/A IC50
[5] = molecular target: cdc2/cyclinB (Homo sapiens, UniProt P06493); experiment: Cyclin-Dependent Kinase Assay cdc2/cyclinB
cdc2/cyclinB, sequence (P06493 whole entry): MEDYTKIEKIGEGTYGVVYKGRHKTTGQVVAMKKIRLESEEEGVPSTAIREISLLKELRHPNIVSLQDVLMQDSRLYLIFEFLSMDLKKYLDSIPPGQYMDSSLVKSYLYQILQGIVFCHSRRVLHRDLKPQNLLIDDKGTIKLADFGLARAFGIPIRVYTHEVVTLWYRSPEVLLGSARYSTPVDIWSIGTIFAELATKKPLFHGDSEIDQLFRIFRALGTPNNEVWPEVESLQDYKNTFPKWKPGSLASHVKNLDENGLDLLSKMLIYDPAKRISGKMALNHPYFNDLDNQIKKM
cdc2/cyclinB, sequence (P14635 whole entry, further chain): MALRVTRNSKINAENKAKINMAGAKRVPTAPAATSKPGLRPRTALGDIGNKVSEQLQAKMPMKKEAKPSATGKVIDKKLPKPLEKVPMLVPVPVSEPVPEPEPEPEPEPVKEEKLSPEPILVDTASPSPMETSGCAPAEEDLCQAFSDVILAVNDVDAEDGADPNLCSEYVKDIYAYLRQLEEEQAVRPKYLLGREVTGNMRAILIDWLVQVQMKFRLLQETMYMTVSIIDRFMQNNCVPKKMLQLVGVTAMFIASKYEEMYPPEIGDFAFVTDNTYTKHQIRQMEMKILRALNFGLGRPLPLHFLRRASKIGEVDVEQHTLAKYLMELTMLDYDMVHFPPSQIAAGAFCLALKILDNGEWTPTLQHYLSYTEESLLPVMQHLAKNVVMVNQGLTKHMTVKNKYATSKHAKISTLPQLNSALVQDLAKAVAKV

cdk4/D, sequence (P11802 whole entry): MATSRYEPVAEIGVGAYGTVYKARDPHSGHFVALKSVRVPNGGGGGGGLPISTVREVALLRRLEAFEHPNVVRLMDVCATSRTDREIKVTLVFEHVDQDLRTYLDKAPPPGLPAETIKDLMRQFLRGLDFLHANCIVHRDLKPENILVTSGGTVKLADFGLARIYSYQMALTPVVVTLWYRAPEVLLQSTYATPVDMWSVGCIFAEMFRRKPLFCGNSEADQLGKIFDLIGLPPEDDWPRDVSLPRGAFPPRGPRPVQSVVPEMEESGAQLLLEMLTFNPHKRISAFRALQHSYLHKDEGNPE
cdk4/D, sequence (P24385 whole entry, further chain): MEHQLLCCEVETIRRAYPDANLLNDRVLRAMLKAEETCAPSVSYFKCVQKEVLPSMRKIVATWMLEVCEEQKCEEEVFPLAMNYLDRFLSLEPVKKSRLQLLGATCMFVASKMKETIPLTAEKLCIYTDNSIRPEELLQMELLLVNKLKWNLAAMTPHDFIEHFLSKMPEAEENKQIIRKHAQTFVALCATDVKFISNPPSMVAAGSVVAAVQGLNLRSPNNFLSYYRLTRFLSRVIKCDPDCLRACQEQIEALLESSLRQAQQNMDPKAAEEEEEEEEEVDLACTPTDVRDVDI

IC50 [1] [nM] | IC50 [2] [nM] | IC50 [3] [nM] | IC50 [4] [nM] | IC50 [5] [nM] | SMILES
19 | 9 | 40 | 16 | 30 | O=C1CSc2ccc(Nc3ncc4ccc(=O)n(C5CCCC5)c4n3)cc2N1 [Example 556, 8-Cyclopentyl-2-(3-oxo-3,4-dihydro-2H-1,4-benzothiazin-6-ylamino)-8H-pyrido[2,3-d]pyrimidin-7-one]
420 | 410 | 460 | 490 | 650 | O=c1ccc2cnc(Nc3ccc(F)c([N+](=O)[O-])c3)nc2n1CC1CC1 [Example 576, 8-Cyclopropylmethyl-2-(4-fluoro-3-nitro-phenylamino)-8H-pyrido[2,3-d]pyrimidin-7-one]
2000 | 278 | 512 | 713 | 715 | CC(C)n1c(=O)ccc2cnc(Nc3cc(Cl)c(O)c(Cl)c3)nc21 [Example 412, 2-(3,5-Dichloro-4-hydroxy-phenylamino)-8-isopropyl-8H-pyrido[2,3-d]pyrimidin-7-one]
140 | 70 | 280 | 2100 | 230 | CCC(CC)n1c(=O)ccc2cnc(Nc3cc(OC)cc(C(F)(F)F)c3)nc21 [Example 508, 8-(1-Ethyl-propyl)-2-(3-methoxy-5-trifluoromethyl-phenylamino)-8H-pyrido[2,3-d]pyrimidin-7-one]
160 | 46.5 | 25.3 | 96.5 | 45.5 | CCCCn1c(=O)ccc2cnc(Nc3ccc(O)c(Cl)c3)nc21 [Example 383, 8-Butyl-2-(3-chloro-4-hydroxy-phenylamino)-8H-pyrido[2,3-d]pyrimidin-7-one]
14 | 13 | 49 | 170 | 62 | CCCn1c(=O)ccc2cnc(Nc3cccc(S(N)(=O)=O)c3)nc21 [Example 348, 3-(7-Oxo-8-propyl-7,8-dihydro-pyrido[2,3-d]pyrimidin-2-ylamino)-benzenesulfonamide]
180 | 54 | 150 | 210 | 48 | CC1Nc2ccc(Nc3ncc4ccc(=O)n(C5CCCC5)c4n3)cc2C1C (stereo not drawn) [Example 552, 8-Cyclopentyl-2-(2,3-dimethyl-2,3-dihydro-1H-indol-5-ylamino)-8H-pyrido[2,3-d]pyrimidin-7-one]
510 | 201 | 228 | 1100 | 313 | CCCCn1c(=O)ccc2cnc(Nc3ccc(C)c(C)c3)nc21 [Example 377, 8-Butyl-2-(3,4-dimethyl-phenylamino)-8H-pyrido[2,3-d]pyrimidin-7-one]
180 | 43.5 | 52.3 | 138 | 68 | CC(C)n1c(=O)ccc2cnc(Nc3ccc(O)c(Cl)c3)nc21 [Example 413, 2-(3-Chloro-4-hydroxy-phenylamino)-8-isopropyl-8H-pyrido[2,3-d]pyrimidin-7-one]
1900 | 83 | 3900 | 920 | 700 | CC(C)n1c(=O)ccc2cnc(Nc3ccc(Cl)c(C(F)(F)F)c3)nc21 [Example 421, 2-(4-Chloro-3-trifluoromethyl-phenylamino)-8-isopropyl-8H-pyrido[2,3-d]pyrimidin-7-one]
31 | 32 | 24 | 35.5 | 82.5 | O=c1ccc2cnc(Nc3ccc4cn[nH]c4c3)nc2n1C1CCCC1 [Example 529, 8-Cyclopentyl-2-(1H-indazol-6-ylamino)-8H-pyrido[2,3-d]pyrimidin-7-one]
2100 | 435 | 370 | 1150 | 940 | CCCn1c(=O)ccc2cnc(Nc3cccc([N+](=O)[O-])c3)nc21 [Example 330, 2-(3-Nitro-phenylamino)-8-propyl-8H-pyrido[2,3-d]pyrimidin-7-one]
